Entries after “also recorded” stand apart in the source; their conditions may differ. Marks after values point to notes of the source that are not given here. Residues, ends and D or L forms follow the SMILES beside them. *: point of attachment. Palmitoyl = CCCCCCCCCCCCCCCC(=O)*
Columns and labels:
[1] = system: EGFPCAG78 RNA-expressing HEK293 cells; format: cell-based
Description: HEK293 cells were cultured at 37° C. with 5% CO2 in DMEM supplemented with 10% FBS and 1% penicillin-streptomycin. Primary rat cortical neurons were isolated and cultured as previously described^37. Transient transfection of HEK293 cells was performed using Lipofectamine 2000 (Life Technologies). P3V8 were delivered to HEK293 cells using the DeliverX (DX) Peptide Transfection Kit (Affymetrix) 4 hr after DNA transfection. At least two batches of independently synthesized peptides were used in the experiments.
HEK 293 cells were seeded on a 24-well plate at a density of 0.5×10^5, and pEGFPCAG78 DNA construct was used to transfect the cells. For P3V8 treatment, different concentrations of P3V8 as indicated in the figure were transfected by DeliverX transfectant 4 hr after DNA transfection. […] Seventy-two hours after treatment, LDH enzyme activity in the cell culture medium was measured as described before. Experimental groups were normalized to the untransfected control. After normalization, data were analyzed using the dose response-inhibition curve (nonlinear regression-variable slope) to determine the IC50 value (Prism6 software, GraphPad Software, Inc.). Each experiment was repeated at least 3 times.

[2] = system: primary rat cortical neurons; assay: LDH cytotoxicity in primary rat cortical neurons; format: cell-based; settings: 0.01 nM to 1 μM, 72 hr
Description: A density of 5×10^5 of primary rat cortical neurons were seeded on culture dish and individually cultured in medium containing 0.01, 0.1, 1, 5, 10, 50, 100, 250, 500, 750, and 1000 nM of P3V8 peptide (transfected with DeliverX). The lactate dehydrogenase (LDH) cytotoxicity activity was measured 72 hr post-treatment. Fold change of LDH activity was normalized to untreated cells. Data are expressed as mean±S.E.M. for 3 independent experiments. NS indicates no significance.
The LDH cytotoxicity activity was measured 72 hr posttreatment. Fold change of LDH activity was normalized to untreated cells. Data are expressed as mean±S.E.M. for 3 independent experiments. NS indicates no significance.
Because of the aim to develop P3V8 into a potent inhibitor that targets RNA toxicity in degenerating cells within the nervous system, it was assessed whether P3V8 had deleterious effects on neuronal cells by determining lactate dehydrogenase release in the culturing medium of rat cortical neurons.

HEK293 cells = assay: Cellular uptake studies in HEK293 cells (LC/MS); format: in vitro ADME; settings: 3 hr; for cellular uptake: 100 nM peptide
Description: HEK293 cells were seeded on a 6-well plate at a density of 6×10^5 and cultured overnight at 37° C. with 5% CO2 in DMEM supplemented with 10% FBS and 1% penicillin-streptomycin. Cells were then treated with 100, 500 or 1000 nM of respective peptide at 37° C. for 3 hr. After treatment, the cells were washed with ice-cold PBS and then lysed by 2% SDS solution. Aliquot (100 μl) of the cell lysate was added with 200 μl acetonitrile and centrifuged at 13000 rcf for 10 min to precipitate the proteins. The collected supernatant was subjected to LC/MS analysis. The protein concentration of the cell lysate was measured using a bicinchoninic acid protein assay kit following Sigma's protocol.

[3] = In vitro stability in rat brain homogenate; format: in vitro ADME; settings: 37° C.
Description: Sprague-Dawley (SD) rats (male, 180-200 g) were supplied by the Laboratory Animal Services Centre at The Chinese University of Hong Kong. All animal studies were conducted under the approval of the Animal Ethics Committee of The Chinese University of Hong Kong, and were performed in accordance with relevant guidelines and regulations. Blank rat brain homogenate was prepared by ultrasonic probe homogenization (Micoson XL-2000, Misonix, Framingdale, N.Y., USA) of brains collected from the control rats. Blank rat plasma was prepared by centrifugation (8000 rcf for 3.5 min) of blood collected from control rats. […] The mixtures were incubated at 37° C. with 100 rpm in a water bath for 1 or 3 hr. The incubation was terminated by addition twice the volume of acetonitrile and centrifugation at 13000 rcf for 10 min. The supernatant was collected for LC/MS/MS analysis.

pre-rRNA = assay: Real-time PCR of pre-rRNA level in DsRedCAG100 flies; format: in vivo, Drosophila; settings: 1 μM
Description: Ribosomal RNA (rRNA) synthesis occurs within the nucleolus^15. It was previously shown that expanded CAG RNA induces nucleolar stress by preventing the nucleolar protein NCL from binding to the upstream control element of the rRNA promoter, leading to the downregulation of rRNA transcription^13. To investigate whether P3V8 suppressed neurotoxicity by alleviating expanded CAG RNA-induced nucleolar stress in vivo, the expression levels of pre-rRNA in were measured DsRedCAG100 flies treated with the peptide. […] This confirms that P3V8 subdued polyQ neurodegeneration in vivo by effective mitigation of the expanded CAG RNA-induced nucleolar stress.
RNA was extracted from cells or ten 12 day-old adult fly heads by Trizol reagent (Life Technologies), and 1 μg of purified RNA was then used for reverse-transcription using the ImPromII™ Reverse Transcription System (Promega). Random hexamer (Roche) was used as primers in reverse transcription. Taqman gene expression assays were performed on an ABI 7500 Real-time PCR system and data were analyzed as previously described^13. The following probes were used: pre-45s rRNA (Assay ID: AILJIZM), pre-rRNA (Assay ID: AIMSG5U), Drosophila GAPDH (Assay ID: Dm01841186) and human actin (Assay ID: Hs99999903_m1). Each experiment was repeated at least 3 times.

[4] = 1000 ng/mL, incubation for 1 hr
[5] = 2000 ng/mL, incubation for 1 hr, 60 min
[6] = 2000 ng/mL, incubation for 3 hr

| Compound | IC50 ([1]; 72 hr, read-out: IC50 (inhibition of cell death, LDH)) | cytotoxicity (LDH release) [2] | cellular uptake (HEK293 cells) | cellular concentration compared to P3V8 (HEK293 cells; 500 nM and 1 μM treatment) | Pecentage of remained ([3]; 500 ng/mL, incubation for 1 hr) | Pecentage of remained ([3]; 500 ng/mL, incubation for 3 hr) | Pecentage of remained [3, 4] | Pecentage of remained ([3]; 1000 ng/mL, incubation for 3 hr) | Pecentage of remained [3, 5] | Pecentage of remained [3, 6] | Pecentage of remained ([3]; 2000 ng/mL, incubation for 3 hr, 180 min) | remaining at 3 h, 2000 ng/mL ([3]; male, Sprague-Dawley, rat, tissue homogenate, 2000 ng/mL, incubation for 3 hr, read-out: Pecentage of remained) | pre-rRNA level (pre-rRNA) | effect on expanded CAG RNA-induced cytotoxicity [1] | effect on expanded CAG RNA-induced cell death ([1]; peptide alone, without DeliverX) | Pecentage of remained ([3]; 2000 ng/mL, incubation for 1 hr) | remaining at 1 h, 2000 ng/mL ([3]; male, Sprague-Dawley, rat, rat brain homogenate, 2000 ng/mL, incubation for 1 hr, read-out: Pecentage of remained) |
| --- | --- | --- | --- | --- | --- | --- | --- | --- | --- | --- | --- | --- | --- | --- | --- | --- | --- |
| CCCCCCCCCCCCCCCC(=O)N[C@@H](CC(=O)O)C(=O)NCC(=O)N[C@@H](CCCCN)C(=O)N[C@@H](CO)C(=O)N[C@@H](CCCCN)C(=O)NCC(=O)N[C@H](C(=O)N[C@@H](C)C(=O)N[C@@H](Cc1ccc(O)cc1)C(=O)N[C@H](C(=O)N[C@@H](CCC(=O)O)C(=O)N[C@@H](Cc1ccccc1)C(=O)N[C@@H](CCCCN)C(N)=O)[C@@H](C)CC)[C@@H](C)CC [L1P3V8] (Palmitoyl-DGKSKGIAYIEFK-NH2) | ~100 nM | no cytotoxic effects; also recorded: no cytotoxicity | low cellular concentration | higher cellular concentration | <20^# % | <20^# % | 22.8 ± 1.2 % | 15.8 ± 0.7% | 45.0 ± 3.5 % | ~21.2% | 21.2 ± 3.0% | ~21% |  |  |  |  |  |
| Ac-DGKSKGIAYIEFK-NH2 [P3V8] |  |  | no uptake |  |  |  | 4.0 ± 1.6% |  | 3.3 ± 0.6% | almost completely degraded |  |  | fully recovered to the DsRedCAG0 control level | effectively alleviate the cytotoxicity | did not exert any cellular effect | 3.3% | 3% |

From patent US10570177B2, “P3 peptidylic inhibitors for treating CAG-repeat RNA toxicity in polyglutamine diseases” (The Chinese University of Hong Kong, priority 2017, dated 2020)
